Source: patent US9308282B2, “[F-18]-labelled L-glutamic acid and L-glutamine derivatives (I), their use and processes for their preparation” (PIRAMAL IMAGING SA, priority 2008, dated 2016)

What was measured:
A549 tumour = test: PET/CT imaging in mice bearing A549 tumours; type: in vivo; conditions: 60 min after i.v. 10 MBq, 20 min data acquisition
H460 tumour = test: PET with rats bearing H460 tumours; type: in vivo; conditions: 80 min after i.v. 18 MBq, 20 min data acquisition
[1] = tested on: A549 and H460 tumour cells; test: cell uptake of S-configured, F-18-labelled glutamic acid derivatives
Source text: Following labelling with F-18, (2S,4S)-2-amino-4-(3-[F-18]fluoropropyl)pentanedioic acid was examined in cell experiments with A549 and H460 tumour cells (both human non-small-cell bronchial carcinoma cell lines).

N[C@@H](C[C@H](CCC[18F])C(=O)O)C(=O)O
PET/CT image analysis: uptake into the A549 tumour (A549 tumour): high uptake | PET image analysis: uptake into the H460 tumour (H460 tumour): high uptake | cellular uptake over time [1]: time-dependent cellular uptake
